Measured values from the NIST ThermoML archive (doi:10.1021/je050440b).
Numbers after ± are expanded uncertainties.

Assay: activity coefficient (dimensionless); of the first substance listed, at infinite dilution; xn = mol fraction of the nth substance listed
Settings: Liquid, Chromatography, x1 = 0

Compound: C1=CCCC=C1 [1,3-cyclohexadiene] + CCCC[N+](C)(C)C.O=S(=O)([N-]S(=O)(=O)C(F)(F)F)C(F)(F)F
- activity coefficient (305.95 K): 3.59 ± 0.24
- activity coefficient (322.55 K): 3.37 ± 0.23
- activity coefficient (333.25 K): 3.18 ± 0.22
- activity coefficient (343.65 K): 3.03 ± 0.21
- activity coefficient (354.15 K): 2.91 ± 0.2
- activity coefficient (364.55 K): 2.81 ± 0.19

Compound: C1COCCO1 [1,4-dioxane] + CCCC[N+](C)(C)C.O=S(=O)([N-]S(=O)(=O)C(F)(F)F)C(F)(F)F
- activity coefficient (343.75 K): 0.74 ± 0.05
- activity coefficient (354.25 K): 0.73 ± 0.05

Compound: C=CCCCCCCCC [1-decene] + CCCC[N+](C)(C)C.O=S(=O)([N-]S(=O)(=O)C(F)(F)F)C(F)(F)F
- activity coefficient (306.15 K): 50.4 ± 3.5
- activity coefficient (311.95 K): 47.8 ± 3.3
- activity coefficient (322.55 K): 43.1 ± 3
- activity coefficient (333.25 K): 39 ± 2.7
- activity coefficient (343.65 K): 35.2 ± 2.4
- activity coefficient (354.05 K): 32.1 ± 2.2

Compound: C=CCCCCCCCCCC [1-dodecene] + CCCC[N+](C)(C)C.O=S(=O)([N-]S(=O)(=O)C(F)(F)F)C(F)(F)F
- activity coefficient (333.25 K): 76.8 ± 5.3
- activity coefficient (343.75 K): 68.9 ± 4.7
- activity coefficient (354.05 K): 61.4 ± 4.2
- activity coefficient (364.55 K): 54.6 ± 3.7
- activity coefficient (371.95 K): 49 ± 3.4

Compound: C=CCCCCC [1-heptene] + CCCC[N+](C)(C)C.O=S(=O)([N-]S(=O)(=O)C(F)(F)F)C(F)(F)F
- activity coefficient (306.75 K): 15.6 ± 1.1
- activity coefficient (311.95 K): 14.9 ± 1
- activity coefficient (322.55 K): 13.9 ± 0.95
- activity coefficient (333.25 K): 12.9 ± 0.88
- activity coefficient (343.65 K): 12 ± 0.82
- activity coefficient (354.05 K): 11.3 ± 0.77

Compound: C=CCCCCCCC [1-nonene] + CCCC[N+](C)(C)C.O=S(=O)([N-]S(=O)(=O)C(F)(F)F)C(F)(F)F
- activity coefficient (306.65 K): 34.1 ± 2.3
- activity coefficient (311.98 K): 32.6 ± 2.2
- activity coefficient (322.55 K): 29.9 ± 2
- activity coefficient (333.25 K): 26.7 ± 1.8
- activity coefficient (343.65 K): 24.5 ± 1.7
- activity coefficient (354.05 K): 22.3 ± 1.5
- activity coefficient (364.55 K): 20.9 ± 1.4

Compound: C=CCCC [1-pentene] + CCCC[N+](C)(C)C.O=S(=O)([N-]S(=O)(=O)C(F)(F)F)C(F)(F)F
- activity coefficient (301.85 K): 6.06 ± 0.41
- activity coefficient (312.35 K): 5.79 ± 0.39

Compound: C=CCCCCCCCCC [1-undecene] + CCCC[N+](C)(C)C.O=S(=O)([N-]S(=O)(=O)C(F)(F)F)C(F)(F)F
- activity coefficient (322.55 K): 62.7 ± 4.3
- activity coefficient (333.25 K): 56.1 ± 3.8
- activity coefficient (343.65 K): 50.7 ± 3.5
- activity coefficient (354.05 K): 45.8 ± 3.1
- activity coefficient (364.55 K): 42.6 ± 2.9
- activity coefficient (374.95 K): 37.6 ± 2.6

Compound: CC(C)CO [2-methyl-1-propanol] + CCCC[N+](C)(C)C.O=S(=O)([N-]S(=O)(=O)C(F)(F)F)C(F)(F)F
- activity coefficient (302.55 K): 3.98 ± 0.27
- activity coefficient (312.15 K): 3.52 ± 0.24
- activity coefficient (322.85 K): 3.13 ± 0.21
- activity coefficient (333.35 K): 2.72 ± 0.19
- activity coefficient (343.65 K): 2.46 ± 0.17
- activity coefficient (354.05 K): 2.23 ± 0.15

Compound: CCC(C)(C)O [2-methylbutan-2-ol] + CCCC[N+](C)(C)C.O=S(=O)([N-]S(=O)(=O)C(F)(F)F)C(F)(F)F
- activity coefficient (302.55 K): 2.53 ± 0.17
- activity coefficient (312.15 K): 2.32 ± 0.16
- activity coefficient (333.25 K): 1.94 ± 0.13
- activity coefficient (343.65 K): 1.8 ± 0.12
- activity coefficient (354.05 K): 1.67 ± 0.11

Compound: CC(C)(C)O [2-methylpropan-2-ol] + CCCC[N+](C)(C)C.O=S(=O)([N-]S(=O)(=O)C(F)(F)F)C(F)(F)F
- activity coefficient (302.55 K): 2.24 ± 0.15
- activity coefficient (312.15 K): 2.01 ± 0.14
- activity coefficient (322.85 K): 1.79 ± 0.12
- activity coefficient (333.25 K): 1.61 ± 0.11
- activity coefficient (343.65 K): 1.47 ± 0.1
- activity coefficient (354.05 K): 1.34 ± 0.09

Compound: CN1CCCC1=O [N-methylpyrrolidone] + CCCC[N+](C)(C)C.O=S(=O)([N-]S(=O)(=O)C(F)(F)F)C(F)(F)F
- activity coefficient (312.35 K): 112 ± 7.7
- activity coefficient (322.75 K): 81.3 ± 5.6
- activity coefficient (333.35 K): 60.4 ± 4.1
- activity coefficient (343.75 K): 46.1 ± 3.1
- activity coefficient (354.15 K): 36.5 ± 2.5
- activity coefficient (364.75 K): 28 ± 1.9
- activity coefficient (375.15 K): 22.4 ± 1.5

Compound: CC(C)=O [acetone] + CCCC[N+](C)(C)C.O=S(=O)([N-]S(=O)(=O)C(F)(F)F)C(F)(F)F
- activity coefficient (301.85 K): 0.42 ± 0.04
- activity coefficient (312.45 K): 0.42 ± 0.04
- activity coefficient (343.75 K): 0.4 ± 0.03

Compound: CC#N [acetonitrile] + CCCC[N+](C)(C)C.O=S(=O)([N-]S(=O)(=O)C(F)(F)F)C(F)(F)F
- activity coefficient (301.75 K): 0.52 ± 0.04
- activity coefficient (312.45 K): 0.5 ± 0.04
- activity coefficient (322.95 K): 0.49 ± 0.04
- activity coefficient (333.35 K): 0.47 ± 0.04
- activity coefficient (343.75 K): 0.46 ± 0.04

Compound: c1ccccc1 [benzene] + CCCC[N+](C)(C)C.O=S(=O)([N-]S(=O)(=O)C(F)(F)F)C(F)(F)F
- activity coefficient (322.75 K): 1.3 ± 0.08
- activity coefficient (333.35 K): 1.26 ± 0.08
- activity coefficient (343.55 K): 1.26 ± 0.08
- activity coefficient (354.05 K): 1.22 ± 0.08
- activity coefficient (364.45 K): 1.2 ± 0.08

Compound: CCCCO [butan-1-ol] + CCCC[N+](C)(C)C.O=S(=O)([N-]S(=O)(=O)C(F)(F)F)C(F)(F)F
- activity coefficient (302.55 K): 3.62 ± 0.25
- activity coefficient (312.15 K): 3.22 ± 0.22
- activity coefficient (322.85 K): 2.83 ± 0.19
- activity coefficient (333.35 K): 2.49 ± 0.17
- activity coefficient (343.65 K): 2.24 ± 0.15

Compound: CCC(C)O (stereo not given) [butan-2-ol] + CCCC[N+](C)(C)C.O=S(=O)([N-]S(=O)(=O)C(F)(F)F)C(F)(F)F
- activity coefficient (333.15 K): 2.06 ± 0.14
- activity coefficient (343.65 K): 1.87 ± 0.13
- activity coefficient (354.05 K): 1.7 ± 0.11
- activity coefficient (364.45 K): 1.53 ± 0.1
- activity coefficient (374.95 K): 1.38 ± 0.09

Compound: CCCC=O [butanal] + CCCC[N+](C)(C)C.O=S(=O)([N-]S(=O)(=O)C(F)(F)F)C(F)(F)F
- activity coefficient (301.75 K): 0.84 ± 0.05
- activity coefficient (312.25 K): 0.8 ± 0.05
- activity coefficient (322.75 K): 0.79 ± 0.05
- activity coefficient (343.55 K): 0.77 ± 0.05
- activity coefficient (354.15 K): 0.76 ± 0.05

Compound: CCCCc1ccccc1 [butylbenzene] + CCCC[N+](C)(C)C.O=S(=O)([N-]S(=O)(=O)C(F)(F)F)C(F)(F)F
- activity coefficient (333.25 K): 5.77 ± 0.39
- activity coefficient (343.65 K): 5.62 ± 0.38
- activity coefficient (354.05 K): 5.43 ± 0.37
- activity coefficient (364.45 K): 5.31 ± 0.36
- activity coefficient (374.95 K): 5.16 ± 0.35

Compound: C1CCCCC1 [cyclohexane] + CCCC[N+](C)(C)C.O=S(=O)([N-]S(=O)(=O)C(F)(F)F)C(F)(F)F
- activity coefficient (300.95 K): 4.15 ± 0.28
- activity coefficient (312.25 K): 3.84 ± 0.26
- activity coefficient (322.85 K): 3.6 ± 0.25
- activity coefficient (333.35 K): 3.37 ± 0.23

Compound: OC1CCCCC1 [cyclohexanol] + CCCC[N+](C)(C)C.O=S(=O)([N-]S(=O)(=O)C(F)(F)F)C(F)(F)F
- activity coefficient (343.65 K): 3.52 ± 0.24
- activity coefficient (354.05 K): 2.89 ± 0.2
- activity coefficient (364.45 K): 2.54 ± 0.17
- activity coefficient (373.95 K): 2.27 ± 0.15
- activity coefficient (385.55 K): 1.95 ± 0.13

Compound: C1=CCCCC1 [cyclohexene] + CCCC[N+](C)(C)C.O=S(=O)([N-]S(=O)(=O)C(F)(F)F)C(F)(F)F
- activity coefficient (312.05 K): 6.87 ± 0.47
- activity coefficient (322.55 K): 6.45 ± 0.44
- activity coefficient (333.25 K): 5.94 ± 0.4
- activity coefficient (343.65 K): 5.5 ± 0.37
- activity coefficient (354.15 K): 5.31 ± 0.36

Compound: CCCCCCCCCC [decane] + CCCC[N+](C)(C)C.O=S(=O)([N-]S(=O)(=O)C(F)(F)F)C(F)(F)F
- activity coefficient (302.15 K): 97.8 ± 6.7
- activity coefficient (312.15 K): 87.5 ± 6
- activity coefficient (322.65 K): 77.5 ± 5.3
- activity coefficient (333.25 K): 67.2 ± 4.6
- activity coefficient (343.65 K): 59.9 ± 4.1
- activity coefficient (354.05 K): 53.7 ± 3.7

Compound: CN(C)C=O [dimethylformamide] + CCCC[N+](C)(C)C.O=S(=O)([N-]S(=O)(=O)C(F)(F)F)C(F)(F)F
- activity coefficient (364.55 K): 0.29 ± 0.03
- activity coefficient (375.15 K): 0.29 ± 0.03
- activity coefficient (385.55 K): 0.3 ± 0.03
- activity coefficient (396.15 K): 0.3 ± 0.03

Compound: CCCCCCCCCCCC [dodecane] + CCCC[N+](C)(C)C.O=S(=O)([N-]S(=O)(=O)C(F)(F)F)C(F)(F)F
- activity coefficient (333.25 K): 128 ± 8.8
- activity coefficient (343.65 K): 110 ± 7.5
- activity coefficient (354.05 K): 92.3 ± 6.3

Compound: CCO [ethanol] + CCCC[N+](C)(C)C.O=S(=O)([N-]S(=O)(=O)C(F)(F)F)C(F)(F)F
- activity coefficient (312.25 K): 1.94 ± 0.13
- activity coefficient (322.85 K): 1.73 ± 0.12
- activity coefficient (333.25 K): 1.57 ± 0.1
- activity coefficient (343.65 K): 1.41 ± 0.09

Compound: CCc1ccccc1 [ethylbenzene] + CCCC[N+](C)(C)C.O=S(=O)([N-]S(=O)(=O)C(F)(F)F)C(F)(F)F
- activity coefficient (322.85 K): 2.79 ± 0.19
- activity coefficient (333.25 K): 2.76 ± 0.19
- activity coefficient (343.75 K): 2.65 ± 0.18
- activity coefficient (354.15 K): 2.6 ± 0.18

Compound: CCCCCCCO [heptan-1-ol] + CCCC[N+](C)(C)C.O=S(=O)([N-]S(=O)(=O)C(F)(F)F)C(F)(F)F
- activity coefficient (354.05 K): 3.47 ± 0.24
- activity coefficient (364.63 K): 3.11 ± 0.21
- activity coefficient (375.05 K): 2.81 ± 0.19
- activity coefficient (386.6 K): 2.58 ± 0.18

Compound: CCCCCCC=O [heptanal] + CCCC[N+](C)(C)C.O=S(=O)([N-]S(=O)(=O)C(F)(F)F)C(F)(F)F
- activity coefficient (354.15 K): 1.84 ± 0.12
- activity coefficient (364.65 K): 1.73 ± 0.12
- activity coefficient (374.95 K): 1.6 ± 0.11
- activity coefficient (385.45 K): 1.48 ± 0.1
- activity coefficient (395.95 K): 1.36 ± 0.09

Compound: CCCCCCC [heptane] + CCCC[N+](C)(C)C.O=S(=O)([N-]S(=O)(=O)C(F)(F)F)C(F)(F)F
- activity coefficient (301.62 K): 30.2 ± 2.1
- activity coefficient (312.15 K): 27.7 ± 1.9
- activity coefficient (322.75 K): 25.6 ± 1.8
- activity coefficient (333.25 K): 23.4 ± 1.6

Compound: C=CCCCC [hex-1-ene] + CCCC[N+](C)(C)C.O=S(=O)([N-]S(=O)(=O)C(F)(F)F)C(F)(F)F
- activity coefficient (305.85 K): 10.2 ± 0.7
- activity coefficient (312.35 K): 9.81 ± 0.67
- activity coefficient (322.55 K): 9.46 ± 0.65
- activity coefficient (343.65 K): 8.63 ± 0.59
- activity coefficient (364.55 K): 7.93 ± 0.54
